Experimental data as given in patent US20180214428A1, “3-(1H-INDOL-2-YL)-1H-PYRAZOLO[3,4-B]PYRIDINES AND THERAPEUTIC USES THEREOF” (Samumed, LLC, priority 2015, published 2018).

Experiments:
Type in all cases: cell-based, human
[1] = tested on: Wnt activity (Sp5-Luc reporter gene, SW480 colon carcinoma cells); assay: Screening assay for Wnt activity: Sp5-Luc reporter gene assay in SW480 cells; conditions: Homo sapiens; for EC50: overnight incubation; for inhibition at 10 µM: given for EC50 of >10 μM, read-out: percent inhibition at 10 μM
How it was run: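 SW480 cells stably transduced with a luciferase reporter driven by an Sp5 promoter of eight TCF/LEF sites were plated at 4,000 cells/well in 1% FBS medium. They were exposed overnight at 37° C to a 10-point 1:3 dilution series from 10 μM (0.1% DMSO). Luminescence was normalized to DMSO for four-parameter EC50, or percent inhibition at 10 μM.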

SW480 colon cancer cells = assay: Cell viability assay (CellTiter-Blue) in SW480 colon cancer cells; conditions: Homo sapiens; for EC50: 96 h, four days, CellTiter-Blue; for inhibition at 10 µM: given for EC50 of >10 μM, read-out: percent inhibition at 10 μM
How it was run: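 SW480 cells (~2×10^3 per well) were exposed to compound for four days at 37 °C/5% CO2, using 8-point 1:3 dilutions from 10 μM to 0.0045 μM in duplicate. Viability was read by resazurin reduction (CellTiter-Blue, ~3 h, Ex 560/Em 590 nm). EC50 came from non-linear regression; above 10 μM, percent inhibition at 10 μM is given.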

IL-6 = IL-6 inhibition in LPS-stimulated THP-1 monocytes (HTRF); conditions: Homo sapiens, THP-1 cells; for EC50: 500 ng/mL LPS, 22 h, HTRF IL-6 readout, 10-point dose-response from 10 μM; for inhibition at 10 µM: LPS stimulated, given only where EC50 >10 μM, top concentration 10 μM, read-out: percentage in parentheses beside EC50 >10 (IL-6 inhibition)
How it was run: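 THP-1 cells serum-reduced (1% FBS, 24 h), then 5000 cells/well preincubated 2 h with compound (10-point 1:3 series from 10 μM, 0.1% DMSO) before 500 ng/mL LPS for 22 h at 37 °C. Secreted IL-6 quantified by HTRF 665/620 ratio; DMSO-normalised duplicates fitted to four-parameter EC50; above 10 μM, % inhibition at 10 μM given.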

Row | SMILES | EC50 [1] [µM] | EC50 (SW480 colon cancer cells) [µM] | EC50 (IL-6) [µM] | inhibition at 10 µM (SW480 colon cancer cells) [%] | inhibition at 10 µM (IL-6) [%] | inhibition at 10 µM [1] [%]
1 | CS(=O)(=O)NCc1cc(F)cc(-c2cccc3[nH]c(-c4n[nH]c5ncc(-c6cncc(N)c6)cc45)cc23)c1 [Compound 453, N-(3-(2-(5-(5-Aminopyridin-3-yl)-1H-pyrazolo[3,4-b]pyridin-3-yl)-1H-indol-4-yl)-5-fluorobenzyl)methanesulfonamide] | 0.157 | 0.997 | 0.157 | – | – | –
2 | CS(=O)(=O)NCc1cc(F)cc(-c2cccc3[nH]c(-c4n[nH]c5ncc(-c6ccccn6)cc45)cc23)c1 [Compound 478, N-(3-Fluoro-5-(2-(5-(pyridin-2-yl)-1H-pyrazolo[3,4-b]pyridin-3-yl)-1H-indol-4-yl)benzyl)methanesulfonamide] | 3.88 | > 10 | 0.69 | 22.6 | – | –
3 | FC1(F)CCN(Cc2cncc(-c3cnc4[nH]nc(-c5cc6ncccc6[nH]5)c4c3)c2)C1 [Compound 504, 5-(5-((3,3-Difluoropyrrolidin-1-yl)methyl)pyridin-3-yl)-3-(1H-pyrrolo[3,2-b]pyridin-2-yl)-1H-pyrazolo[3,4-b]pyridine] | > 10 | 0.113 | 0.116 | – | – | 42.4
4 | O=C(CC1CCNCC1)Nc1cncc(-c2cnc3[nH]nc(-c4cc5c(-c6ccccn6)cccc5[nH]4)c3c2)c1 [Compound 595, 2-(Piperidin-4-yl)-N-(5-(3-(4-(pyridin-2-yl)-1H-indol-2-yl)-1H-pyrazolo[3,4-b]pyridin-5-yl)pyridin-3-yl)acetamide] | 3.71 | > 10 | 0.247 | 11.3 | – | –
5 | Cc1ncc(-c2cnc3[nH]nc(-c4cc5ccccc5[nH]4)c3c2)n1C [Compound 655, 5-(1,2-Dimethyl-1H-imidazol-5-yl)-3-(1H-indol-2-yl)-1H-pyrazolo[3,4-b]pyridine] | 3.34 | 3.72 | 4.35 | – | – | –
6 | CN(C)CCNc1cc(F)cc(-c2cccc3[nH]c(-c4n[nH]c5ncc(-c6cncc(OC7CCCCC7)c6)cc45)cc23)c1 [Compound 785, N^1-(3-(2-(5-(5-(Cyclohexyloxy)pyridin-3-yl)-1H-pyrazolo[3,4-b]pyridin-3-yl)-1H-indol-4-yl)-5-fluorophenyl)-N^2,N^2-dimethylethane-1,2-diamine] | 2.95 | 1.64 | 1.8 | – | – | –

Second part, led by results:

Row | EC50 [1] [µM] | EC50 (SW480 colon cancer cells) [µM] | EC50 (IL-6) [µM] | SMILES | inhibition at 10 µM (SW480 colon cancer cells) [%] | inhibition at 10 µM (IL-6) [%] | inhibition at 10 µM [1] [%]
7 | 2.6 | 1.3 | 0.007 | CN(C)CCNc1cc(F)cc(-c2cccc3[nH]c(-c4n[nH]c5ncc(-c6cncnc6)cc45)cc23)c1 [Compound 449, N^1-(3-Fluoro-5-(2-(5-(pyrimidin-5-yl)-1H-pyrazolo[3,4-b]pyridin-3-yl)-1H-indol-4-yl)phenyl)-N^2,N^2-dimethylethane-1,2-diamine] | – | – | –
8 | 0.3 | > 10 | > 10 | Cc1ccncc1-c1cnc2[nH]nc(-c3cc4c(-c5cc(F)cc(CNS(C)(=O)=O)c5)cccc4[nH]3)c2c1 [Compound 455, N-(3-Fluoro-5-(2-(5-(4-methylpyridin-3-yl)-1H-pyrazolo[3,4-b]pyridin-3-yl)-1H-indol-4-yl)benzyl)methanesulfonamide] | 8.7 | 54.8 | –
9 | 0.489 | 1.07 | 0.451 | CN(C)Cc1cncc(-c2cnc3[nH]nc(-c4cc5c(-c6cc(F)cc(CNS(C)(=O)=O)c6)cccc5[nH]4)c3c2)c1 [Compound 463, N-(3-(2-(5-(5-((Dimethylamino)methyl)pyridin-3-yl)-1H-pyrazolo[3,4-b]pyridin-3-yl)-1H-indol-4-yl)-5-fluorobenzyl)methane sulfonamide] | – | – | –
10 | 3.96 | > 10 | 6.01 | c1ccc(CNCc2cncc(-c3cnc4[nH]nc(-c5cc6ncccc6[nH]5)c4c3)c2)cc1 [Compound 502, 1-(5-(3-(1H-Pyrrolo[3,2-b]pyridin-2-yl)-1H-pyrazolo[3,4-b]pyridin-5-yl)pyridin-3-yl)-N-benzylmethanamine] | 9.8 | – | –
11 | > 10 | > 10 | > 10 | Fc1cccc(-c2cccc3[nH]c(-c4n[nH]c5ncc(-c6cncc(OCc7ccccc7)c6)cc45)cc23)c1 [Compound 520, 5-(5-(Benzyloxy)pyridin-3-yl)-3-(4-(3-fluorophenyl)-1H-indol-2-yl)-1H-pyrazolo[3,4-b]pyridine] | 13.3 | 31.3 | 18.2
12 | > 10 | > 10 | 3.6 | Fc1ccccc1-c1cccc2[nH]c(-c3n[nH]c4ncc(C5CCNCC5)cc34)cc12 [Compound 539, 3-(4-(2-Fluorophenyl)-1H-indol-2-yl)-5-(piperidin-4-yl)-1H-pyrazolo[3,4-b]pyridine] | 51.5 | – | 47.2
13 | > 10 | 3.78 | 1.98 | CN(C)CCOc1cncc(-c2cnc3[nH]nc(-c4cc5c(-c6cccnc6)cccc5[nH]4)c3c2)c1 [Compound 565, N,N-Dimethyl-2-((5-(3-(4-(pyridin-3-yl)-1H-indol-2-yl)-1H-pyrazolo[3,4-b]pyridin-5-yl)pyridin-3-yl)oxy)ethan-1-amine] | – | – | 34.5
14 | 9.77 | > 10 | 1.96 | Oc1cncc(-c2cnc3[nH]nc(-c4cc5c(-c6cccs6)cccc5[nH]4)c3c2)c1 [Compound 711, 5-(3-(4-(Thiophen-2-yl)-1H-indol-2-yl)-1H-pyrazolo[3,4-b]pyridin-5-yl) pyridin-3-ol] | 10.3 | – | –
15 | 0.714 | 1.44 | 0.168 | c1ccc(COc2cncc(-c3cnc4[nH]nc(-c5cc6ncccc6[nH]5)c4c3)c2)cc1 [Compound 1006, 5-(5-(Benzyloxy)pyridin-3-yl)-3-(1H-pyrrolo[3,2-b]pyridin-2-yl)-1H-pyrazolo[3,4-b]pyridine] | – | – | –
